# Experimental data reported in patent US20060127411A1 (priority 2002, published 2006).
# What was measured:
# [1] = test system: peripheral blood lymphocytes (PBMC); type: cell-based, human
# [2] = test system: peripheral blood lymphocytes (PBMC); type: cell-based, human; remark: listed apart in the source
# [3] = test system: IgE antibodies from the serum of patients with atopic eczema; type: binding, human
# [4] = test system: IgE antibodies from the serum of patients with atopic eczema; type: binding, human; remark: listed apart in the source
Substance,IgE binding in the dot blot [3],IgE binding in the immunoblot [4],also measured
QEEDFLTLH [Peptide P2],weak but clearly detectable IgE binding,,"Intracellular IFNγ production [1]: P1 suppresses the production of IFNγ, a cytokine which mediates a number of immunological functions, more strongly than P2; Intracellular IL-4 production [1]: is stimulated as a function of the dosage; Ratio between IFNγ and IL-4 (IFNγ+ Th1 cells to IL-4+ Th2 cells) [1]: modified by the peptides as a function of the dosage in favour of the IL-4 producing Th2 lymphocytes; Effect on proliferation of lymphocytes [2]: did not bring to light any significant effects"
QELDYLTRH [Peptide P1],weak but clearly detectable IgE binding,,
"S. aureus enterotoxin B [SEB, reference compound]",,possible to detect specific IgE antibodies against SEB,
V Q T N K K K V T A Q E L D Y L T R H (VQTNKKKVTAQELDYLTRH) [Peptide (c)],,the only one to exhibit an IgE binding,
